In ChEMBL document CHEMBL3882391, “Substituted tricyclic compounds as protein kinase inhibitors” (2008) one finds inhibition data, which are given here for 5 compounds.

Activity calls are given as the source filed them. The calls are words filed in the database; no cut-off is given here.

For experiment [1], the target named is T1, Aurora kinase A (Homo sapiens) (UniProt O14965).
T1 sequence (whole entry): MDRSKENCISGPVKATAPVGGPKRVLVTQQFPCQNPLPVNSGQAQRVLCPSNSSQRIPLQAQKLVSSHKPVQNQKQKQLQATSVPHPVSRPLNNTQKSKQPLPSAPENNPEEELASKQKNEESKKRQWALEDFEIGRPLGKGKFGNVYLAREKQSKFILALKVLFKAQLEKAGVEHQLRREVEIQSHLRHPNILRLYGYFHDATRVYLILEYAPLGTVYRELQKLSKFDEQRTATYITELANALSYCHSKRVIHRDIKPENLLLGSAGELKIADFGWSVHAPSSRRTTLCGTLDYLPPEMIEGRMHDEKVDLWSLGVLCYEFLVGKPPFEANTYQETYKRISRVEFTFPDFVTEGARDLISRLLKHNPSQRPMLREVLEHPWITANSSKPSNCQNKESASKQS
The experiment is described as follows: Inhibition of human recombinant aurora-2 kinase expressed in Sf9 cells at 20 uM using kemptide as substrate by kinase-Glo luciferase assay. For orientation: Kinase-Glo measures the ATP left after a reaction by luminescence.

For another experiment, the system named is Caco-2. The experiment in a line: Inhibition of cell proliferation of human Caco2 cells at 0.1 to 1000 uM after 4 days by MTS assay. Format: functional, cell-based. (Tetrazolium dyes change colour on reduction, which living cells bring about.)
The test system of a further experiment is PANC-1. The experiment is described as follows: Inhibition of cell proliferation of human PANC1 cells at 0.01 to 1000 uM after 4 days by MTS assay. Format: functional, cell-based.
Another experiment relates to ASPC1. The experiment is described as follows: Inhibition of cell proliferation of human AsPC1 cells at 0.1 to 1000 uM after 4 days by MTS assay. In kind it is functional, cell-based.
For experiment [2], the system named is MIA PaCa-2. The experiment in a line: Inhibition of cell proliferation of human MIAPaCa2 cells at 0.01 to 1000 uM after 4 days by MTS assay. Format: functional, cell-based.
A further experiment relates to COLO 320. The experiment in a line: Inhibition of cell proliferation of human COLO320 cells at 0.1 to 1000 uM after 4 days by MTS assay. In kind it is functional.
A further experiment relates to MCF7. The experiment is described as follows: Inhibition of cell proliferation of human MCF7 cells at 0.1 to 1000 uM after 4 days by MTS assay. Format: functional, cell-based.
A further experiment concerns A2780. The experiment in a line: Inhibition of cell proliferation of human A2780 cells at 0.1 to 1000 uM after 4 days by MTS assay. Format: functional, cell-based.
Another experiment relates to MDA-MB-435. The experiment is described as follows: Inhibition of cell proliferation of human MDA-MB-435 cells at 0.1 to 1000 uM after 4 days by MTS assay. Format: functional, cell-based.
The subject of a further experiment is T47D. The experiment in a line: Inhibition of cell proliferation of human T47D cells at 0.1 to 1000 uM after 4 days by MTS assay. In kind it is functional, cell-based.
Experiment [3] has as its system MIA PaCa-2. The experiment is described as follows: Inhibition of cell proliferation of human MIAPaCa2 cells at 3 to 300 uM after 48 hrs by hematocytometry. Format: functional, cell-based.

Turning to `O=S(=O)(Nc1ncccn1)c1ccc(Nc2ncnc3c2sc2ncccc23)cc1`, the inhibition entry in [1] is “Active”.
For the compound `COc1cc2ncnc(Nc3cccc(Br)c3)c2cc1OC`, the inhibition entry in [1] is “Active”.
Turning to `COc1cc2ncnc(N3CCN(C(=S)Nc4ccc(S(=O)(=O)Nc5ncccn5)cc4)CC3)c2cc1OC`, in experiment [1], the inhibition entry was “Active”.
The same measure, in the same setting: with `O=S(=O)(Nc1ncccn1)c1ccc(Nc2ncnc3c2oc2ccccc23)cc1` the entry was “Active”.
Take `COc1cc2[nH]c3ncnc(N4CCN(C(=S)Nc5ccc(S(=O)(=O)Nc6ncccn6)cc5)CC4)c3c2cc1OC`: the inhibition entry in the experiment on Caco-2, in the experiment on PANC-1, in the experiment on ASPC1, with MIA PaCa-2 [2], in the experiment with COLO 320 and with MCF7 was “Active” throughout. Further, the inhibition entry with A2780, in the experiment on MDA-MB-435, in the experiment on T47D and in the experiment with MIA PaCa-2 [3] was “Active” in each case.
